# Laboratory results published in US5189018A, “Method for reduction of central nervous system (CNS) edema resulting from head and spinal cord trauma” (Wayne State University, priority 1991, dated 1993).
# Non-standard residues stand in square brackets, D forms with d. Residues, ends and D or L forms follow the SMILES beside them. Met(O2) = CS(=O)(=O)CC[C@H](N)C(=O)O
# What was measured:
# [1] = system: blood brain barrier permeability; design: species or system rat (Wistar); conditions: rat, in vivo
# From the text: (§1) Applicant has developed a reliable physiologic model of potentially reversible, controlled fixed and closed-head injury in the laboratory rat (Wistar, Harlan Sprague-Dawley, Inc. Indianapolis, Ind.) that mimics many of the features of moderate concussion in humans. The model permits long term examination of subsequent cerebrovascular pathophysiological sequelae in conscious, unrestrained animals.
# A rat anesthetized with halothane was mounted in a prone position on the test board and the head was fixed in position by means of the bite plate 30 over which the upper incisors were engaged as shown in FIG. 1c. […]
# Brain vascular volume (BVS) and permeability were determined simultaneously utilizing modified methods of Rapoport, as described below (18). […] Moreover, estimates of BVS determined with either tracer are in agreement with published values obtained at more conventional time-intervals, e.g., two to ten minutes, after intravenous injection with an error of less than 4%. […]
# The experimental protocol for the measurement of blood-to-brain transfer of diffusion-limited substances such as sucrose involved surgical implantation of catheters, one in a femoral vein, the other in the opposite femoral artery, under halothane anesthesia. […] The behavior of the animal was carefully monitored. […]
# [2] = system: intracranial pressure; design: species or system rat (Wistar); conditions: rat, in vivo
# From the text: as §1
# A rat anesthetized with halothane was mounted in a prone position on the test board and the head was fixed in position by means of the bite plate 30 over which the upper incisors were engaged as shown in FIG. 1c. The board angle of recline and the axis of pendulum rotation were adjustable to permit a flat or angled (3°-5° ) strike on the chosen head impact site. The optimum applied force/angle was selected from the nomogram. The pendulum was raised to the desired angle and released through a quick-release mechanism to fall into impact with the head. Forces developed by this means ranged from 60 to 85 pounds. […]
# Intracranial pressures were determined in separate but identically treated animals. […] A Camino 431 miniature pressure sensor was inserted into the tubing and pressure was measured on Camino 420 Digital Pressure Monitor System. Intracranial pressure measurements were monitored from 5 minutes before and up to […] following head impaction. […]
# [3] = Toxicity of subcutaneous doses in the rat model; assay type: in vivo; conditions: doses up to four times 27.2 ug (65-75 ug/kg), s.c.
# [4] = modified peptide less susceptible to enzymatic degradation, versus ACTH4-10; cited from earlier work
# [5] = system: cisplatin neuropathy; conditions: in vivo; cited from earlier work
# [6] = system: dementias; alcoholic inebriation; conditions: human, in vivo; cited from earlier work
smiles,measurement,setting,value
"CS(=O)(=O)CC[C@H](N)C(=O)N[C@@H](CCC(=O)O)C(=O)N[C@@H](Cc1c[nH]cn1)C(=O)N[C@@H](Cc1ccccc1)C(=O)N[C@H](CCCCN)C(=O)N[C@@H](Cc1ccccc1)C(=O)O [Organon 2766, Met (O2) Glu-His-Phe-D-Lys-Phe] (H-[Met(O2)]EHF[dK]F-OH)",permeability of the blood-brain barrier at high dose,[1],dramatically increased
same,ICP in uninjured animals,[2],not different from control animals
same,lethality,[3],not lethal
same,half life in vivo,[4],longer half life
same,cytotoxic effect of cisplatin,[5],without adversely effecting
same,toxic effects,[5],No toxic effects were noted
same,toxicity and side effects in humans,[6],non-toxic and had no serious side effects
